The source of these data is PubChem BioAssay AID298 (DTP/NCI, 2004).

For the assay, the system named is MX-1 breast xenograft, intrarenal, nude mice, tumor weight. Briefly: NCI In Vivo Anticancer Drug Screen. Data for tumor model Human Mammary Carcinoma MX-1 Xenograft (intrarenal inoculation) in NU/NU BALB/C (nude) mice. The note with it: endpoint: mean tumor weight change, higher = larger tumour. The procedure, abridged: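 T/C readout: treated-group measurement over vehicle-control measurement, using tumor size or survival in tumor-bearing mice.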
For orientation: Xenograft models place foreign cells or tissue in a host animal.

[1] abbreviates: dose: 150.0 mg/kg/injection, schedule: Q04DX003 (ip), vehicle: saline with Tween-80.

Values joined by “and” are separate entries in the source; they are usually repeats but may differ in a detail not shown here. Identical values can stand only once. Inconclusive results are not listed.

In the case of `NC1=NC(=O)N2CC12` (stereo not drawn), the T/C (dose: 50.0 mg/kg/injection, schedule: Q04DX003 (sc), vehicle: saline) is 106 % of control; the T/C (dose: 100.0 mg/kg/injection, schedule: Q04DX003 (sc), vehicle: saline) is 116 % of control; the T/C (dose: 200.0 mg/kg/injection, schedule: Q04DX003 (sc), vehicle: saline) is 86 % of control.
For `C/C=C\C1OC1(C)c1cc(=O)c2c(C)cc3c(c2o1)C(=O)c1c(O)c(C2CC(C)(N(C)C)C(OC(C)=O)C(C)O2)cc(C2CC(N(C)C)C(O)C(C)O2)c1C3=O` (stereo not drawn), the T/C (dose: 0.75 mg/kg/injection, schedule: Q04DX003 (ip), vehicle: saline + alcohol) was 89 % of control; the T/C (dose: 1.5 mg/kg/injection, schedule: Q04DX003 (ip), vehicle: saline + alcohol) is 34 % of control and 50 % of control; the T/C (dose: 3.0 mg/kg/injection, schedule: Q04DX003 (ip), vehicle: saline + alcohol) was 29 % of control and 47 % of control; the T/C (dose: 6.0 mg/kg/injection, schedule: Q04DX003 (ip), vehicle: saline + alcohol) is 11 % of control and 32 % of control; the T/C (dose: 12.0 mg/kg/injection, schedule: Q04DX003 (ip), vehicle: saline + alcohol) is 39 % of control.
For the compound `Cc1ccc(NN=O)nc1`, the T/C runs as follows: (dose: 9.35 mg/kg/injection, schedule: Q04DX003 (ip), vehicle: water) 11 % of control; (dose: 9.37 mg/kg/injection, schedule: Q04DX003 (ip), vehicle: water) -9 % of control; (dose: 18.7 mg/kg/injection, schedule: Q04DX003 (ip), vehicle: water) 6 % of control; (dose: 18.75 mg/kg/injection, schedule: Q04DX003 (ip), vehicle: water) -21 % of control; (dose: 37.5 mg/kg/injection, schedule: Q04DX003 (ip), vehicle: water) -69 % of control.
Consider `COc1ccc2c(c1)-c1nn(CCCN(C)C)c3ccc([N+](=O)[O-])c(c13)N2`, for which the T/C reads like this: (dose: 12.5 mg/kg/injection, schedule: Q04DX003 (ip), vehicle: water) 66 % of control and 79 % of control; (dose: 25.0 mg/kg/injection, schedule: Q04DX003 (ip), vehicle: water) 53 % of control and 56 % of control; (dose: 50.0 mg/kg/injection, schedule: Q04DX003 (ip), vehicle: water) 19 % of control and 38 % of control and 41 % of control; (dose: 100.0 mg/kg/injection, schedule: Q04DX003 (ip), vehicle: water) 13 % of control.
Turning to `Cn1c(-c2ccc(/C=N\N3CCN(/N=C/c4ccc(-c5c[n+]6ccsc6n5C)cc4)CC3)cc2)c[n+]2ccsc12`, under “dose: 3.0 mg/kg/injection, schedule: Q04DX003 (ip), vehicle: saline with Tween-80”, the T/C is 79 % of control.
In the case of `CCCCCCCCCCC(OC(C)=O)C1CCC(C2CCC(C(O)CCCCCCCCCCCCC3C=C(C)OC3=O)O2)O1` (stereo not drawn), the T/C reads like this: (dose: 20.0 mg/kg/injection, schedule: Q04DX003 (sc), vehicle: water) 80 % of control; (dose: 40.0 mg/kg/injection, schedule: Q04DX003 (sc), vehicle: water) 72 % of control; (dose: 80.0 mg/kg/injection, schedule: Q04DX003 (sc), vehicle: water) 71 % of control; (dose: 160.0 mg/kg/injection, schedule: Q04DX003 (sc), vehicle: water) 70 % of control.
For `COC(=Nc1ccccc1)SSC(C)C`, the T/C is 90 % of control (dose: 300.0 mg/kg/injection, schedule: Q04DX003 (sc), vehicle: saline with Tween-80) and 99 % of control (dose: 600.0 mg/kg/injection, schedule: Q04DX003 (sc), vehicle: saline with Tween-80).
As for `CCN(CC)CCC(=O)OC(C(=O)O[C@H]1C[C@@]2(O)C(OC(=O)c3ccccc3)C3C4(OC(C)=O)COC4C[C@H](O)[C@@]3(C)C(=O)[C@H](OC(C)=O)C(=C1C)C2(C)C)C(NC(=O)c1ccccc1)c1ccccc1` (stereo partly drawn), the T/C runs as follows: (dose: 4.5 mg/kg/injection, schedule: Q01DX009 (ip), vehicle: water) -100 % of control; (dose: 9.0 mg/kg/injection, schedule: Q01DX009 (ip), vehicle: water) -100 % of control; (dose: 18.0 mg/kg/injection, schedule: Q01DX009 (ip), vehicle: water) -100 % of control.
With `CN(C)CCC(=O)C(=Cc1ccc(O)cc1)C(=O)CCN(C)C`, the T/C by setting is: (dose: 75.0 mg/kg/injection, schedule: Q04DX003 (ip), vehicle: saline) 90 % of control; (dose: 150.0 mg/kg/injection, schedule: Q04DX003 (ip), vehicle: saline) 124 % of control.
`CC[C@@]1(O)C(=O)OCc2c1cc1n(c2=O)Cc2cc3ccccc3nc2-1`: the T/C is, setting by setting: (dose: 10.0 mg/kg/injection, schedule: Q04DX003 (sc), vehicle: saline with Tween-80) -84 % of control and -100 % of control; (dose: 20.0 mg/kg/injection, schedule: Q04DX003 (sc), vehicle: saline with Tween-80) -100 % of control and -95 % of control; (dose: 40.0 mg/kg/injection, schedule: Q04DX003 (sc), vehicle: saline with Tween-80) -100 % of control.
For `CCc1ccc(C2=C(O)C(=O)C(c3ccc(CC)cc3)=C(O)C2=O)cc1`, the T/C (dose: 200.0 mg/kg/injection, schedule: Q04DX003 (sc), vehicle: saline with Tween-80) is 67 % of control.
Take `COc1nc(C(Cl)(Cl)Cl)c(Cl)c(OC)c1Cl`: the T/C (dose: 89.0 mg/kg/injection, schedule: Q04DX003 (oral), vehicle: Klucel (hydroxypropylcellulose) (HPC)) is -100 % of control; the T/C (dose: 133.5 mg/kg/injection, schedule: Q04DX003 (oral), vehicle: Klucel (hydroxypropylcellulose) (HPC)) was -100 % of control; the T/C (dose: 200.0 mg/kg/injection, schedule: Q04DX003 (oral), vehicle: Klucel (hydroxypropylcellulose) (HPC)) is -100 % of control; the T/C (dose: 300.0 mg/kg/injection, schedule: Q04DX003 (oral), vehicle: Klucel (hydroxypropylcellulose) (HPC)) was -100 % of control; the T/C (dose: 450.0 mg/kg/injection, schedule: Q04DX003 (oral), vehicle: Klucel (hydroxypropylcellulose) (HPC)) is -100 % of control.
Turning to `CCOC(=O)Nc1cc2c(c(N)n1)N=C(c1ccccc1)CO2`, the T/C under setting [1] was 73 % of control; the T/C (dose: 300.0 mg/kg/injection, schedule: Q04DX003 (ip), vehicle: saline with Tween-80) was 80 % of control; the T/C (dose: 600.0 mg/kg/injection, schedule: Q04DX003 (ip), vehicle: saline with Tween-80) is 51 % of control; the T/C (dose: 1200.0 mg/kg/injection, schedule: Q04DX003 (ip), vehicle: saline with Tween-80) is 68 % of control.
On to `c1ccc2[nH]c(CN(CCN(Cc3nc4ccccc4[nH]3)Cc3nc4ccccc4[nH]3)Cc3nc4ccccc4[nH]3)nc2c1`, for which the T/C reads like this: (dose: 6.25 mg/kg/injection, schedule: Q04DX003 (ip), vehicle: DMSO) 59 % of control and 68 % of control; (dose: 50.0 mg/kg/injection, schedule: Q04DX003 (ip), vehicle: DMSO) 62 % of control.
For `CCCCCCCC1C(=O)OC2CC3C(C)=CC(=O)C(O)C3(C)C3C4(O)OCC23C1C(C)C4O` (stereo not drawn), the T/C reads like this: (dose: 10.0 mg/kg/injection, schedule: Q04DX003 (ip), vehicle: Klucel (hydroxypropylcellulose) (HPC)) 89 % of control; (dose: 20.0 mg/kg/injection, schedule: Q04DX003 (ip), vehicle: Klucel (hydroxypropylcellulose) (HPC)) 107 % of control; (dose: 40.0 mg/kg/injection, schedule: Q04DX003 (ip), vehicle: Klucel (hydroxypropylcellulose) (HPC)) 53 % of control.
With `CC(=O)OCN(C)C=O`, the T/C is, setting by setting: (dose: 300.0 mg/kg/injection, schedule: Q01DX010 (ip), vehicle: suspension in saline) 105 % of control; (dose: 600.0 mg/kg/injection, schedule: Q01DX010 (ip), vehicle: suspension in saline) 75 % of control; (dose: 600.0 mg/kg/injection, schedule: Q01DX010 (sc), vehicle: saline) 88 % of control; (dose: 1200.0 mg/kg/injection, schedule: Q01DX010 (sc), vehicle: saline) 104 % of control; (dose: 2400.0 mg/kg/injection, schedule: Q01DX010 (sc), vehicle: saline) 78 % of control.
Regarding `CCCC1CCC(=C2C(=O)CCC2=O)O1` (stereo not drawn), the T/C under setting [1] is 68 % of control.
Consider `CC(=O)Oc1c[nH]c(=O)[nH]c1=O`, for which the T/C is 116 % of control (dose: 300.0 mg/kg/injection, schedule: Q04DX003 (sc), vehicle: distilled water + Tween-80); 118 % of control (dose: 600.0 mg/kg/injection, schedule: Q04DX003 (sc), vehicle: distilled water + Tween-80); 102 % of control (dose: 1200.0 mg/kg/injection, schedule: Q04DX003 (sc), vehicle: distilled water + Tween-80); 83 % of control (dose: 2400.0 mg/kg/injection, schedule: Q04DX003 (sc), vehicle: distilled water + Tween-80).
Consider `O=C1c2c(O)cccc2-c2nn(CCNCCO)c3ccc(NCCNCCO)c1c23`, for which the T/C is 3 % of control (dose: 2.75 mg/kg/injection, schedule: Q04DX003 (ip), vehicle: water); -100 % of control (dose: 5.5 mg/kg/injection, schedule: Q04DX003 (ip), vehicle: water); -19 % of control (dose: 11.0 mg/kg/injection, schedule: Q04DX003 (ip), vehicle: water).
Turning to `O=NN(CCCl)C(=O)NCCO`, the T/C was 82 % of control (dose: 3.13 mg/kg/injection, schedule: Q04DX003 (sc), vehicle: water); 38 % of control (dose: 6.25 mg/kg/injection, schedule: Q04DX003 (sc), vehicle: water); 7 % of control (dose: 12.5 mg/kg/injection, schedule: Q04DX003 (sc), vehicle: water).
